Values after ≈ are worked out from the molar mass of the structure shown. Active and inactive are the calls of the source. The rule behind the calls is not given here.
Legend:
[1] = test system: Mycobacterium tuberculosis; assay: Antimycobacterial activity against Mycobacterium tuberculosis; format: functional
[2] = test system: Mycobacterium tuberculosis; assay: Antimycobacterial activity against Mycobacterium tuberculosis H37Rv ATCC 27294 by Alamar blue assay; format: functional, organism-based

Structure (SMILES)	MIC [1] [µg/mL]	Activity [2]
C=C(C)[C@@H]1CC[C@]2(C(=O)O)CC[C@]3(C)[C@H](CC[C@@H]4[C@@]5(C)CC[C@H](O)C(C)(C)[C@@H]5CC[C@]43C)[C@@H]12 [BETULINIC ACID]	62 (≈ 136 µM)	
C=C(C)[C@@H]1CC[C@]2(C(=O)O)CC[C@]3(C)[C@H](CC[C@@H]4[C@@]5(C)CC[C@@H](O)[C@@](C)(C(=O)O)[C@@H]5CC[C@]43C)[C@@H]12	54 (≈ 111 µM)	Active
CC1(C)CC[C@]2(C(=O)O)CC[C@]3(C)C(=CC[C@@H]4[C@@]5(C)CC[C@@H](O)[C@@](C)(C(=O)O)[C@@H]5CC[C@]43C)[C@@H]2C1		Active
CC1(C)CC[C@]2(C(=O)O)CC[C@]3(C)C(=CC[C@@H]4[C@@]5(C)CC[C@H](O)C(C)(C)[C@@H]5CC[C@]43C)[C@@H]2C1 [OLEANOLIC_ACID]	29 (≈ 63.5 µM)	

— ChEMBL document CHEMBL2331078, “Quantitative purity-activity relationships of natural products: the case of anti-tuberculosis active triterpenes from Oplopanax horridus” (2013)
